Holding throughout (assay): relative viability (nuclei count vs DMSO), 5 days (fraction); higher = more cells survive
Compound in the assay “AT9283 + Pemetrexed”: O=C(Nc1c[nH]nc1-c1nc2ccc(CN3CCOCC3)cc2[nH]1)NC1CC1 [AT9283] + Nc1nc2[nH]cc(CCc3ccc(C(=O)N[C@@H](CCC(=O)O)C(=O)O)cc3)c2c(=O)[nH]1 [Pemetrexed] (partner 0.2 µM)
A digest of the protocol: (§1)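 A single step with final 0.05% Triton X-100, 1% formaldehyde and 1 ug/ml Hoechst fixed the cells and stained nuclei 5 days after treatment. Lung cancer cell lines in 1536-well plates had been treated by pin tool the day after seeding with one drug alone or a fixed anchor-drug dose plus five library-drug doses (not always all listed) in √10 steps, and nuclei were counted on 4× images. Relative viability is the ratio of nuclei in treated wells to nuclei in vehicle wells, taken as the median of duplicate plates.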

Compound in the assay “Erlotinib + Trametinib”: C#Cc1cccc(Nc2ncnc3cc(OCCOC)c(OCCOC)cc23)c1 [Erlotinib] + CC(=O)Nc1cccc(-n2c(=O)n(C3CC3)c(=O)c3c(Nc4ccc(I)cc4F)n(C)c(=O)c(C)c32)c1 [Trametinib] (partner 0.02 µM)
The essentials: as §1

Compound in the assay “Erlotinib + Bortezomib”: C#Cc1cccc(Nc2ncnc3cc(OCCOC)c(OCCOC)cc23)c1 [Erlotinib] + CC(C)C[C@H](NC(=O)[C@H](Cc1ccccc1)NC(=O)c1cnccn1)B(O)O [Bortezomib] (partner 0.002 µM)
The essentials: as §1

Compound in a further assay: C#Cc1cccc(Nc2ncnc3cc(OCCOC)c(OCCOC)cc23)c1 [Erlotinib]
A digest of the protocol:
(§2)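 Acceptance criteria were a control CV below 25% and at least one doubling per plate. Lung cancer cell lines in 1536-well plates got five library-drug doses (not always all listed) √10 apart by pinning and were left 5 days with no medium change. Viability divides treated-well nuclei by vehicle-well nuclei and is the median across plates. Nuclei were counted by MetaXpress from 4× Hoechst images.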

Compound in a further assay: O=C(Nc1c[nH]nc1-c1nc2ccc(CN3CCOCC3)cc2[nH]1)NC1CC1 [AT9283]
A digest of the protocol:
as §2

Compound in a further assay: N=C(N)NC(=N)NCCc1ccccc1 [Phenformin] (anchor plate)
The following applies: 250 µM. The essentials:
as §2

Turning to NCI-H441, the relative viability was determined as 0.228 with AT9283 + Pemetrexed (first compound 0.003 µM); 0.274 with AT9283 + Pemetrexed (first compound 0.03 µM); 0.25 with AT9283 + Pemetrexed (first compound 0.09487 µM); 0.238 with AT9283 + Pemetrexed (first compound 0.3 µM); 0.457 with Erlotinib + Trametinib (first compound 0.02 µM); 0.442 with Erlotinib + Trametinib (first compound 0.6325 µM). For the same cell line, the relative viability came out at 0.328 with Erlotinib + Trametinib (first compound 2 µM); 0.724 in the assay with Erlotinib + Bortezomib (first compound 0.02 µM); 0.471 with Erlotinib + Bortezomib (first compound 0.2 µM); 0.383 with Erlotinib + Bortezomib (first compound 0.6325 µM); 0.219 with Erlotinib + Bortezomib (first compound 2 µM); 1.1 with Erlotinib (0.2 µM). Moreover, the relative viability in the assay with Erlotinib (0.6325 µM) turned out to be 1.05; with Erlotinib (2 µM), 0.848; in the assay with AT9283 (0.003 µM) it was 1.09; in the assay with AT9283 (0.03 µM), 0.856; with AT9283 (0.09487 µM), 0.37; in the assay with AT9283 (0.3 µM), 0.337. For the same cell line, the relative viability in the assay with Phenformin turned out to be 0.87.

The values above are taken from the supplement of paper PMC10307832.
